Measured values from patent US6534516B1, “Androgen receptor modulator compounds and methods” (Ligand Pharmaceuticals Incorporated, priority 1996, dated 2003).
Read-outs that look alike come from different tables or passages of the source.

Legend:
Experiment in all cases: cell-based
[1] = target: T1, human AR (Homo sapiens, UniProt P10275); conditions: read-out: AR Binding Ki
T1 construct: expressed in transfected cells; host or cells: CV-1 cells (African green monkey kidney fibroblasts)
T1 sequence (P10275 1-920): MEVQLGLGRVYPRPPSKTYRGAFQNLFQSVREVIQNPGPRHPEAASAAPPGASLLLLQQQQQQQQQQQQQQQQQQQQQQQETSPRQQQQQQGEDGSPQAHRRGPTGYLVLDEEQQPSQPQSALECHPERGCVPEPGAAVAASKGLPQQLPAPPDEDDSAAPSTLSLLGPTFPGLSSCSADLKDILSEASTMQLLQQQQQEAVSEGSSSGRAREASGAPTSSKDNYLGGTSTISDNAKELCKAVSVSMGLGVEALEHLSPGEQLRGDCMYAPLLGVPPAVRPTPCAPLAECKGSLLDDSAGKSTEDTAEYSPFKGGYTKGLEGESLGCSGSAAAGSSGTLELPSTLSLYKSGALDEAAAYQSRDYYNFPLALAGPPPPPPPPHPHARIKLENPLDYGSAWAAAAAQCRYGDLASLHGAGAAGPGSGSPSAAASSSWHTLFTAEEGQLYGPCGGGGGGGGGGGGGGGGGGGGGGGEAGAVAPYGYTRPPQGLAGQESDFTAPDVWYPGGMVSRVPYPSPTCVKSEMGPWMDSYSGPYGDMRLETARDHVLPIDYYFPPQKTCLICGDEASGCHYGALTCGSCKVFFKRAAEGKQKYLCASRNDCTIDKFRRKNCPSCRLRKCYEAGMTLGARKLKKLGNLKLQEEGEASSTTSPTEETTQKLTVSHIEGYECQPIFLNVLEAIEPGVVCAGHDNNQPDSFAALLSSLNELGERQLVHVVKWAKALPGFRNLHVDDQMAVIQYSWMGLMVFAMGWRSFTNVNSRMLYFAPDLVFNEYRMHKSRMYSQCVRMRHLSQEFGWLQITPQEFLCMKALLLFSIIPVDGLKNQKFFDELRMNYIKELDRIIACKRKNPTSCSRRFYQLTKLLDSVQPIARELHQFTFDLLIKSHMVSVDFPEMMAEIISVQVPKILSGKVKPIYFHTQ

[2] = target: T2, PR (Homo sapiens, UniProt P06401)
T2 sequence (P06401 1-933): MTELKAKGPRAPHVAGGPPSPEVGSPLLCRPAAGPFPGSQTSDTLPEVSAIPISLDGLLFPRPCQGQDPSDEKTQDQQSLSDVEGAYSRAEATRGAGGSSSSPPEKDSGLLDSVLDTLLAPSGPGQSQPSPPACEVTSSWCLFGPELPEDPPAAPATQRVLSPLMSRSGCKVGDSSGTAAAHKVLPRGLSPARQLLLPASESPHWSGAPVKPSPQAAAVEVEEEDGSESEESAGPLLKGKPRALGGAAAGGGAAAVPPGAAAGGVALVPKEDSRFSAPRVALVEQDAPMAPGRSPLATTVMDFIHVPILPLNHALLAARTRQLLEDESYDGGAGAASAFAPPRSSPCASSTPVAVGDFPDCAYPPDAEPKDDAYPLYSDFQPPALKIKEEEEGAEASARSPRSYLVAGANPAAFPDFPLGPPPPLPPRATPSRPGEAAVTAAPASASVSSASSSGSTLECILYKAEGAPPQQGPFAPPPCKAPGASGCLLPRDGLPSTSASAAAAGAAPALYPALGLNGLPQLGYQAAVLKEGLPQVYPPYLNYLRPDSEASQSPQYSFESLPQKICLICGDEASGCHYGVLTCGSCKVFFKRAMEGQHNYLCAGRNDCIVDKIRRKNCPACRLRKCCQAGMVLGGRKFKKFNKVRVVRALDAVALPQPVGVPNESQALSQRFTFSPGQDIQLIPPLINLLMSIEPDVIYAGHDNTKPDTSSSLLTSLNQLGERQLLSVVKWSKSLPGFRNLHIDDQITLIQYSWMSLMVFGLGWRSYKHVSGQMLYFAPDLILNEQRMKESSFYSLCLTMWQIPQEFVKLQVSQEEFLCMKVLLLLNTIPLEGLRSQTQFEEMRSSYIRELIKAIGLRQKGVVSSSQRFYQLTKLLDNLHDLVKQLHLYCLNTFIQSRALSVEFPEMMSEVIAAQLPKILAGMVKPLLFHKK

[3] = target: T1, human AR; assay type: cell-based; conditions: for AR Antagonist CV-1 Cells Efficacy: antagonist mode, DHT at its EC50, % of maximal inhibition, na = not active; for IC50: read-out: AR Antagonist CV-1 Cells Potency; for EC50: read-out: AR Agonist CV-1 Cells Potency; for AR activity profile (in words): summary of Tables 1 and 2
Excerpt: The co-transfection assay provides a method for identifying functional agonists and partial agonists which mimic, or antagonists which inhibit, the effect of native hormones, and quantifying their activity for responsive IR proteins. In this regard, the co-transfection assay mimics an in vivo system in the laboratory. Importantly, activity in the co-transfection assay correlates very well with known in vivo activity, such that the co-transfection assay functions as a qualitative and quantitative predictor of a tested compounds in vivo pharmacology. See, e.g., T. Berger et al. 41 J. Steroid Biochem. Molec.
CV-1 cells (African green monkey kidney fibroblasts) were cultured in the presence of Dulbecco's Modified Eagle Medium (DMEM) supplemented with 10% charcoal resin-stripped fetal bovine serum then transferred to 96-well microtiter plates one day prior to transfection.
The reporter plasmid, MTV-LUC, contains the cDNA for firefly luciferase (LUC) under control of the mouse mammary tumor virus (MTV) long terminal repeat, a conditional promoter containing an androgen response element. See e.g., Berger et al. supra. In addition, pRS-β-Gal, coding for constitutive expression of E. coli β-galactosidase (β-Gal), was included as an internal control for evaluation of transfection efficiency and compound toxicity.
Three to four replicates were used for each sample.
After 40 hours, the cells were washed with PBS, lysed with a Triton X-100-based buffer and assayed for LUC and β-Gal activities using a luminometer or spectrophotometer, respectively. For each replicate, the normalized response (NR) was calculated as:
where β-Gal rate=β-Gal•1×10^−5/β-Gal incubation time.

`CC12CCCN1c1cc3[nH]c(=O)c(F)c(C(F)(F)F)c3cc1CC2` (racemic) [Compound 102, (R/S)-3-Fluoro-6,7,7a,11-tetrahydro-7a-methyl-4-trifluoromethyl-2-pyridono[5,6-g]pyrrolidino[1,2-a]quinoline] was tested, and the Ki [1] was 11 nM, the IC50 [2] was 398 nM and the “AR Antagonist CV-1 Cells Efficacy” value [3] was 85 ± 1%. The IC50 [3] was 193 ± 19 nM.
In the case of `Cn1c(=O)c(F)c(C(F)(F)F)c2cc3c(cc21)N1CCCC1(C)CC3` (racemic) [Compound 104, (R/S)-3-Fluoro-6,7,7a,11-tetrahydro-1,7a-dimethyl-4-trifluoromethyl-2-pyridono[5,6-g]pyrrolidino[1,2-a]quinoline], the Ki [1] is reported as 93 ± 48 nM, the IC50 [2] is reported as 800 nM and the “AR Antagonist CV-1 Cells Efficacy” value [3] is reported as 85 ± 2%. For the same compound, the IC50 [3] was 40 ± 9 nM.
`CCC1CCN(C(C)=O)c2cc3[nH]c(=O)cc(C(F)(F)F)c3cc21` (racemic) [Compound 123, (R/S)-1-Acetyl-4-ethyl-1,2,3,4-tetrahydro-6-(trifluoromethyl)-8-pyridono[5,6-g]quinoline] was tested, and the Ki [1] was 87 nM, the “AR Agonist CV-1 Cells Efficacy” value [3] was 91 ± 17% and the EC50 [3] was 31 ± 2 nM.
`CCC1CCN([N+](=O)[O-])c2cc3[nH]c(=O)cc(C(F)(F)F)c3cc21` (racemic) [Compound 127, (R/S)-4-Ethyl-1,2,3,4-tetrahydro-1-nitro-6-(trifluoromethyl)-8-pyridono[5,6-g]quinoline] was tested, and the Ki [1] was 136 nM, the “AR Agonist CV-1 Cells Efficacy” value [3] was 56 ± 12% and the EC50 [3] was 85 ± 36 nM.
`CC1(C)CCc2cc3c(C(F)F)c(F)c(=O)[nH]c3cc2N1` [Compound 106, 6-Difluoromethyl-7-fluoro-1,2,3,4-tetrahydro-2,2-dimethyl-8-pyridono[5,6-g]quinoline] was tested, and the Ki [1] was 73 ± 37 nM, the “AR Antagonist CV-1 Cells Efficacy” value [3] was 78 ± 3% and the IC50 [3] was 52 ± 14 nM.
`Cn1c(=O)c(F)c(C(F)(F)F)c2cc3c(cc21)NC(C)(C)CC3` [Compound 107, 7-Fluoro-1,2,3,4-tetrahydro-2,2,9-trimethyl-6-trifluoromethyl-8-pyridono[5,6-g]quinoline] was tested, and the Ki [1] was 110 ± 42 nM, the “AR Antagonist CV-1 Cells Efficacy” value [3] was 83 ± 3% and the IC50 [3] was 38 ± 10 nM.
`CN1c2cc3c(cc2CCC1(C)C)c(C(F)(F)F)c(F)c(=O)n3C` [Compound 109, 7-Fluoro-1,2,3,4-tetrahydro-1,2,2,9-tetramethyl-6-trifluoromethyl-8-pyridono[5,6-g]quinoline] was tested, and the Ki [1] was 18 ± 7 nM, the “AR Agonist CV-1 Cells Efficacy” value [3] was 13 ± 8 % and the “AR Antagonist CV-1 Cells Efficacy” value [3] was 77 ± 4%. For the same compound, the EC50 [3] was 36 ± 45 nM, the IC50 [3] was 15 ± 2 nM and the “AR activity profile (in words)” value [3] was “highly selective AR antagonists”.
In the case of `CC1=CC(C)(C)Nc2cc3[nH]c(=O)c(F)c(C(F)(F)F)c3cc21` [Compound 111, 7-Fluoro-1,2-dihydro-2,2,4-trimethyl-6-trifluoromethyl-8-pyridono[5,6-g]quinoline], the Ki [1] is reported as 12 nM, the “AR Agonist CV-1 Cells Efficacy” value [3] is reported as 16 ± 2% and the “AR Antagonist CV-1 Cells Efficacy” value [3] is reported as 53 ± 5%. The EC50 [3] was 227 ± 59 nM, the IC50 [3] was 43 ± 8 nM and the “AR activity profile (in words)” value [3] was “mixed AR agonists/antagonists”.
In the case of `CC1CC(C)(C)Nc2cc3[nH]c(=O)c(F)c(C(F)(F)F)c3cc21` (centres unmarked) [Compound 112, 7-Fluoro-1,2,3,4-tetrahydro-2,2,4-trimethyl-6-trifluoromethyl-8-pyridono[5,6-g]quinoline], the Ki [1] is reported as 61 ± 16 nM, the “AR Agonist CV-1 Cells Efficacy” value [3] is reported as 21 ± 6% and the “AR Antagonist CV-1 Cells Efficacy” value [3] is reported as 42 ± 10%. The EC50 [3] was 26 ± 15 nM, the IC50 [3] was 20 ± 1 nM and the “AR activity profile (in words)” value [3] was “highly selective AR antagonists”.
With `CC1CC(C)(C)n2oc(=O)c3c4[nH]c(=O)cc(C(F)(F)F)c4cc1c32` (centres unmarked) [Compound 113, 1,10-[1,3-dihydro-3-oxo-(2,1-isoxazolyl)]-1,2,3,4-tetrahydro-2,2,4,10-tetramethyl-6-trifluoromethyl-8-pyridono[5,6-g]quinoline] the Ki [1] was 10 nM, the EC50 ([3]; agonist mode, na = not active (efficacy < 10 and potency > 10,000)) was 245 nM and the “AR Agonist CV-1 Cells Efficacy” value ([3]; agonist mode, percent maximal response relative to reference agonist DHT, na = not active (efficacy < 10 and potency > 10,000)) was 31%. For the same compound, the “AR Antagonist CV-1 Cells Efficacy” value [3] was 48% and the “AR activity profile (in words)” value [3] was “mixed AR agonists/antagonists”.
With `Cc1c2c(cc3c(C(F)(F)F)c(F)c(=O)[nH]c13)C(C)CC(C)(C)N2` (centres unmarked) [Compound 115, 7-Fluoro-1,2,3,4-tetrahydro-2,2,4,10-tetramethyl-6-trifluoromethyl-8-pyridono[5,6-g]quinoline] the Ki [1] was 107 nM and the “AR Antagonist CV-1 Cells Efficacy” value [3] was 87 ± 1%.
For `CC1(C)CCc2cc3c(C(F)(F)F)cc(=O)[nH]c3cc2N1O` [Compound 118, 1,2,3,4-Tetrahydro-1-hydroxy-2,2-dimethyl-6-trifluoromethyl-8-pyridono[5,6-g]quinoline], the Ki [1] was 86 ± 29 nM, the “AR Antagonist CV-1 Cells Efficacy” value [3] was 70 ± 2 % and the IC50 [3] was 482 ± 179 nM.
`Cn1c(=O)cc(C(F)(F)F)c2cc3c(cc21)N(O)C(C)(C)CC3` [Compound 119, 1,2,3,4-Tetrahydro-1-hydroxy-2,2,9-trimethyl-6-trifluoromethyl-8-pyridono[5,6-g]quinoline] was tested, and the Ki [1] was 74 ± 29 nM, the “AR Antagonist CV-1 Cells Efficacy” value [3] was 40 ± 12% and the IC50 [3] was 1570 ± 1050 nM.
With `CCC1(CC)CCc2cc3c(C(F)(F)F)c(F)c(=O)[nH]c3cc2N1` [Compound 120, 2,2-Diethyl-7-fluoro-1,2,3,4-tetrahydro-6-trifluoromethyl-8-pyridono[5,6-g]quinoline] the Ki [1] was 156 ± 24 nM, the “AR Agonist CV-1 Cells Efficacy” value [3] was 18 ± 3% and the “AR Antagonist CV-1 Cells Efficacy” value [3] was 61 ± 5%. For the same compound, the EC50 [3] was 171 ± 95 nM and the IC50 [3] was 17 ± 2 nM.
